# Measurements: patent publication US20200289474A1, “METHODS OF TREATING PAIN WITH A THIAZOLINE ANTI-HYPERALGESIC” (priority 2019, published 2020)
# Experiments:
# [1] = stability in plasma from a variety of species; assay type: in vitro ADME
# [2] = rat pharmacokinetics after single PO dose; assay type: in vivo; settings: for Compound 1 Concentration in Rat Plasma / Compound 1 Concentration in Rat Plasma, Average / mean Cmax / t1/2: 100 mg/kg single PO; for Compound 1 Concentration in Rat Plasma: individual animals
# Description: In both assays, a deuterated (Compound 1-d4) internal standard was used.
# The objective of this non-GLP study was to determine the pharmacokinetics of Compound 1 after a single oral (gavage) dose in rats, and to determine if Compound 1 undergoes epimerization in the rat. Compound 1 was administered to CD® IGS [Crl:CD(SD)] (Sprague Dawley) rats (5/sex/group) as a single oral gavage dose of 100 mg/kg in a vehicle of 0.5% aqueous HPMC. Rats were dosed at a dose volume of 10 mL/kg body weight.
# [3] = system: STZ-induced mechanical allodynia; assay: STZ-induced diabetic rats, subsequent study; assay type: in vivo, rat
# Description: Experiments were conducted to determine the effect of Compound 1 in streptozotocin (STZ)-induced diabetic rats. In the first experiment, after obtaining mechanical threshold baselines, STZ (50 mg/kg IV) was administered (Day −7). Two days later, blood glucose levels were measured and animals that were hyperglycemic (>250 mg/dL) continued in the study. On Day 0 the baseline for mechanical thresholds prior to dosing with test articles was established for the rats. Compound 1 (10, 30, and 100 mg/kg PO), gabapentin (100 mg/kg PO) or vehicle was then administered daily for 5 days. On Day 0 mechanical thresholds were obtained at 1, 3, and 6 h post-dose. On Day 1 mechanical thresholds were measured immediately prior to dosing and then 3 h post-dose. The same regimen was followed on Day 3.
# In a subsequent study, the same STZ paradigm was followed. However, in addition to the 100 mg/kg Compound 1 group, two additional cohorts received the Compound 1 100 mg/kg dose split into two or three doses per day with 50 mg/kg BID and 33 mg/kg TID. In addition to the gabapentin (100 mg/kg PO) group, a separate cohort received duloxetine (30 mg/kg PO). Additionally, in this study mechanical threshold testing was implemented every day immediately prior to dosing and 2 h post-dose for 7 days.
# [4] = rat 28-day GLP repeat dose PO study (toxicokinetics); assay type: in vivo
# Description: A 28-day GLP repeat dose study with Compound 1 in rats was conducted with oral gavage doses of 0, 500, 1000 or 2000 mg/kg/day at a dosing volume of 10 mL/kg. The vehicle was 0.5% HPMC. There were 15 rats/sex in the control and high dose groups (5/sex for a 14-day recovery period) while the low and mid doses consisted of 10 rats/sex. Satellite groups of rats/sex/group for toxicokinetics were included.
# Rats in Group 1 (Vehicle Control) were bled once at approximately 1 hour post-dose on those days.
# [5] = female, rat, in vivo, po, 500 mg/kg
# [6] = rat 28-day PO, Day 1, F, 1000 mg/kg
# [7] = rat 28-day PO, Day 1, F, 2000 mg/kg
# [8] = rat 28-day PO, Day 1, M, 500 mg/kg
# [9] = rat 28-day PO, Day 1, M, 1000 mg/kg
# [10] = rat 28-day PO, Day 1, M, 2000 mg/kg
# [11] = rat 28-day PO, Day 14, F, 500 mg/kg
# [12] = rat 28-day PO, Day 14, F, 1000 mg/kg
# [13] = rat 28-day PO, Day 14, F, 2000 mg/kg
# [14] = rat 28-day PO, Day 14, M, 500 mg/kg
# [15] = rat 28-day PO, Day 14, M, 1000 mg/kg
# [16] = rat 28-day PO, Day 14, M, 2000 mg/kg
# [17] = rat 28-day PO, Day 28, F, 500 mg/kg
# [18] = rat 28-day PO, Day 28, F, 1000 mg/kg
# [19] = rat 28-day PO, Day 28, F, 2000 mg/kg
# [20] = rat 28-day PO, Day 28, M, 500 mg/kg
# [21] = rat 28-day PO, Day 28, M, 1000 mg/kg
# [22] = rat 28-day PO, Day 28, M, 2000 mg/kg
compound,measurement,setting,value
"CC1(C)SC(Nc2ccccc2O)=N[C@@H]1C(=O)O.Cl [Compound 1, (R)-2-(2-hydroxyphenylamino)-5,5-dimethyl-4,5-dihydrothiazole-4-carboxylic acid mono-hydrochloride]",stability in plasma,[1],stable
same,Compound 1 Concentration in Rat Plasma,"[2]; Female, 0.5 h post-dose, mono-hydrochloride, 100 mg/kg",34.3 µg/mL
same,"Compound 1 Concentration in Rat Plasma, Average","[2]; Female, 1 h post-dose",60.1 µg/mL
same,Compound 1 Concentration in Rat Plasma,"[2]; Female, 1 h post-dose, mono-hydrochloride, 100 mg/kg",53.9 µg/mL
same,"Compound 1 Concentration in Rat Plasma, Average","[2]; Female, 4 h post-dose",22.6 µg/mL
same,Compound 1 Concentration in Rat Plasma,"[2]; Male, 0.5 h post-dose, mono-hydrochloride, 100 mg/kg",13.8 µg/mL
same,"Compound 1 Concentration in Rat Plasma, Average","[2]; Male, 1 h post-dose",14.9 µg/mL
same,"Compound 1 Concentration in Rat Plasma, Average","[2]; Male, 2 h post-dose",14.3 µg/mL
same,Compound 1 Concentration in Rat Plasma,"[2]; Male, 2 h post-dose, mono-hydrochloride, 100 mg/kg",16.3 µg/mL
same,Compound 1 Concentration in Rat Plasma,"[2]; Male, 8 h post-dose, mono-hydrochloride, 100 mg/kg",1.61 µg/mL
same,Compound 1 Concentration in Rat Plasma,"[2]; Male, 24 h post-dose",BQL
same,mean Cmax,[2]; females,60 µg/mL
same,t1/2,[2]; females,4 h
same,mean Cmax,[2]; males,15 µg/mL
same,t1/2,[2]; males,7 h
same,epimerization in vivo (chiral column),[2]; rat plasma,did not provide any evidence of epimerization
same,difference between dosing regimens,[3]; 100 mg/kg QD vs 50 mg/kg BID vs 33 mg/kg TID,no clear difference
same,reversal of allodynia,"[3]; 100 mg/kg QD, 50 mg/kg BID, 33 mg/kg TID PO, 7 days, statistical significance from Day 1",reversed allodynia
same,Cmax at 28 days,"[4]; both sexes, in vivo, po, rat 28-day pivotal study, at some doses",> 100 µg/mL
same,Tmax at 28 days,"[4]; both sexes, in vivo, po, rat 28-day study (summary)",≤ 1 h
same,CL/F at 28 days,"[4]; both sexes, in vivo, rat 28-day PO, read-out: overall mean CL/F (converted)",35.2 mL/min/kg
same,half-life at 28 days,"[4]; both sexes, in vivo, rat 28-day PO, read-out: overall mean t1/2 (converted)",4.24 h
same,half-life,"[4]; both sexes, rat, in vivo, po",3 to 8 h
same,overall mean V/F,"[4]; both, rat, in vivo, po, 28 days",12.5 L/kg
same,AUC,[4]; [5],298 µg·h/mL
same,AUC(0-inf),[4]; [5],299 µg·h/mL
same,CL/F,[4]; [5],27.8 mL/min/kg
same,Cmax,[4]; [5],74.8 µg/mL
same,Vd/F,[4]; [5],8.1 L/kg
same,half-life,[4]; [5],3.36 h
same,tmax,[4]; [5],2 h
same,half-life,"[4]; female, rat, in vivo, po, 2000 mg/kg",8.05 h
same,CL/F,"[4]; male, rat, in vivo, po, 1000 mg/kg",38.7 mL/min/kg
same,CL/F,"[4]; male, rat, in vivo, po, 2000 mg/kg",35.3 mL/min/kg
same,AUCINF,[4]; [6],794 µg·h/mL
same,AUCTAU,[4]; [6],788 µg·h/mL
same,CL/F (CLz/F),[4]; [6],21 mL/min/kg
same,Cmax,[4]; [6],108 µg/mL
same,t1/2,[4]; [6],3.39 h
same,AUCINF,[4]; [7],1324 µg·h/mL
same,AUCTAU,[4]; [7],1161 µg·h/mL
same,CL/F (CLz/F),[4]; [7],25.2 mL/min/kg
same,Cmax,[4]; [7],118 µg/mL
same,AUCINF,[4]; [8],275 µg·h/mL
same,AUCTAU,[4]; [8],270 µg·h/mL
same,CL/F (CLz/F),[4]; [8],30.3 mL/min/kg
same,Cmax,[4]; [8],55.1 µg/mL
same,t1/2,[4]; [8],4.18 h
same,AUCINF,[4]; [9],460 µg·h/mL
same,AUCTAU,[4]; [9],456 µg·h/mL
same,CL/F (CLz/F),[4]; [9],36.2 mL/min/kg
same,Cmax,[4]; [9],52.7 µg/mL
same,t1/2,[4]; [9],3.46 h
same,AUCINF,[4]; [10],771 µg·h/mL
same,AUCTAU,[4]; [10],768 µg·h/mL
same,CL/F (CLz/F),[4]; [10],43.2 mL/min/kg
same,Cmax,[4]; [10],83.1 µg/mL
same,t1/2,[4]; [10],2.81 h
same,AUCINF,[4]; [11],225 µg·h/mL
same,AUCTAU,[4]; [11],223 µg·h/mL
same,CL/F (CLss/F),[4]; [11],37.5 mL/min/kg
same,Cmax,[4]; [11],75.0 µg/mL
same,t1/2,[4]; [11],4.20 h
same,AUCINF,[4]; [12],437 µg·h/mL
same,AUCTAU,[4]; [12],430 µg·h/mL
same,CL/F (CLss/F),[4]; [12],38.7 mL/min/kg
same,Cmax,[4]; [12],96.3 µg/mL
same,t1/2,[4]; [12],4.19 h
same,AUCINF,[4]; [13],952 µg·h/mL
same,AUCTAU,[4]; [13],942 µg·h/mL
same,CL/F (CLss/F),[4]; [13],35.3 mL/min/kg
same,Cmax,[4]; [13],127 µg/mL
same,t1/2,[4]; [13],3.56 h
same,AUCINF,[4]; [14],258 µg·h/mL
same,AUCTAU,[4]; [14],244 µg·h/mL
same,CL/F (CLss/F),[4]; [14],34.2 mL/min/kg
same,Cmax,[4]; [14],45.8 µg/mL
same,t1/2,[4]; [14],6.27 h
same,AUCINF,[4]; [15],296 µg·h/mL
same,AUCTAU,[4]; [15],293 µg·h/mL
same,Cmax,[4]; [15],51.9 µg/mL
same,t1/2,[4]; [15],3.68 h
same,AUCINF,[4]; [16],709 µg·h/mL
same,AUCTAU,[4]; [16],701 µg·h/mL
same,Cmax,[4]; [16],75.6 µg/mL
same,t1/2,[4]; [16],3.66 h
same,AUCINF,[4]; [17],303 µg·h/mL
same,AUCTAU,[4]; [17],297 µg·h/mL
same,CL/F (CLss/F),[4]; [17],28 mL/min/kg
same,Cmax,[4]; [17],86.4 µg/mL
same,t1/2,[4]; [17],4.62 h
same,tmax,[4]; [17],0.5 h
same,AUCINF,[4]; [18],741 µg·h/mL
same,AUCTAU,[4]; [18],736 µg·h/mL
same,CL/F (CLss/F),[4]; [18],22.7 mL/min/kg
same,Cmax,[4]; [18],128 µg/mL
same,t1/2,[4]; [18],3.20 h
same,AUCINF,[4]; [19],1327 µg·h/mL
same,AUCTAU,[4]; [19],1305 µg·h/mL
same,CL/F (CLss/F),[4]; [19],25.5 mL/min/kg
same,Cmax,[4]; [19],139 µg/mL
same,t1/2,[4]; [19],3.93 h
same,tmax,[4]; [19],0.5 h
same,AUCINF,[4]; [20],333 µg·h/mL
same,AUCTAU,[4]; [20],305 µg·h/mL
same,CL/F (CLss/F),[4]; [20],27.3 mL/min/kg
same,Cmax,[4]; [20],48.6 µg/mL
same,t1/2,[4]; [20],6.90 h
same,AUCINF,[4]; [21],337 µg·h/mL
same,AUCTAU,[4]; [21],334 µg·h/mL
same,CL/F (CLss/F),[4]; [21],49.8 mL/min/kg
same,Cmax,[4]; [21],47.9 µg/mL
same,t1/2,[4]; [21],3.31 h
same,AUCINF,[4]; [22],731 µg·h/mL
same,AUCTAU,[4]; [22],724 µg·h/mL
same,CL/F (CLss/F),[4]; [22],46 mL/min/kg
same,Cmax,[4]; [22],83.6 µg/mL
same,t1/2,[4]; [22],3.53 h
